Results on 25 molecules are retold here after patent publication US20250091989A1, “SMALL MOLECULE PROTEIN SYNTHESIS MODULATORS” (Interdict Bio, Inc., priority 2023, published 2025).

Bounds are passed on as bounds.

The test system of experiment [1] is ALK. As to the kind of experiment: In vitro transcription-translation (IVTT) reporter assay, ALK test sequence. The class given is biochemical. The following applies: HeLa S3 lysate, sfGFP/mCherry ratio, 2 hrs at 30° C. The text has this: (§1) All reporter constructs have been cloned into the pT7CFE1-CHis plasmid (ThermoFisher #88860) using Gibson assembly procedures (NEB #E2611L). The parental pT7CFE1-CHis plasmid contains an EMCV IRES at the 5′UTR for translation initiation, a multiple-cloning site (MCS) for gene insertion, an optional C-terminal His-epitope tag, and polyA sequence in the 3′UTR to regulate mRNA stability. All reporters are designed to be inserted at the MCS to include a red fluorescent protein (mCherry), P2A self-cleaving peptide which releases the preceding mCherry protein product, and a fusion open reading frame containing a 3×FLAG epitope, a peptide sequence of interest (TEST), and green fluorescent protein (sfGFP).
(§2) Construct Plasmid Preparation: All plasmids are isolated from MACH1 cells (ThermoFisher) grown overnight in ampicillin-containing luria broth, and purified using ZymoPure Express Plasmid Midiprep Kit (Zymo Research). Constructs are sequenced verified and diluted to a working concentration of 110 ng/μL.
(§3) HeLa S3 Lysate Preparation: HeLa S3 cell pellets are acquired from Ipracell/Ipratech (Belgium) and shipped as 4 mL frozen cell pellets on dry ice for storage at −80° C. until use. The procedure for lysate preparation is as follows. Prepare 1× Lysis Buffer, cold and stored on ice:
(§4) Each preparation takes 8 cell pellets (4 ml packed volume each, approximately 1.0×10^9 cells per pellet). Thaw cell pellets from −80° C. on ice for 90 mins. Lay pellets horizontally on top of the ice and rotate every 30 mins to ensure even thawing. Once thawed, add 4 mL of cold lysis buffer to each pellet, and using a serological pipet, gently pipet up and down to break up clumps. Incubate resuspended cells in ice for an additional 30 mins (plunged into ice). During 30 min incubation, rinse and RNase-zap (Ambion) glass dounces (use loose pestle “A”), gently dry and place on ice until needed. Prepare RNase-free Eppendorf tubes for spinning and for batch storage. Add batch labels to 1.5-1.7 mL RNase-free microcentrifuge tubes (labeling scheme below). Each batch will have an extra 1.5-1.7 mL RNase-free microcentrifuge tube for 40 μL of lysate, label the top of this tube (labeling scheme below). After 30 min incubation, transfer all 8 mL of cell pellet to dounce. Cell lysis is complete after douncing 100 times. Aliquot cell lysis into 1.5-1.7 mL temporary-microcentrifuge tubes. Place tubes in centrifuge with “fins” out, and spin at 1,200 xg for 5 mins. After the first spin use a 1 mL pipet to resuspend each tube and repeat spin. This acts as an additional lysis step, is more vigorous and increases lysate yield. During second spin get liquid N2 and a fresh conical tube on ice.
(§5) After spin is complete, transfer supernatant (lysate) from microcentrifuge tubes into the 50 mL conical tube and keep on ice. Repeat steps 10-14 for all other cell pellets until completed. Once all cell lysate has been transferred to the 50 mL conical tube pipet to mix so the solution is homogenous. Transfer 1 mL of lysate into batch-labeled microcentrifuge tubes and flash freeze in liquid nitrogen. Be sure to pipet up and down to mix throughout transfer step. Place all tubes in the […] for long-term storage.
(§6) In vitro transcription-translation assay setup: Each assay includes a master mix containing lysate and shared components, a 96-well plate containing compound titrations for testing, a 96-well DNA plate with reporter constructs to be tested, 96-well skirted PCR plates, and 96-well flat-bottom, black, fluorescent assay plates. […]
(A reporter such as luciferase makes a cellular process visible.)

For experiment [2], the system named is MYC. Briefly: In vitro transcription-translation (IVTT) reporter assay, MYC test sequence. The following applies: HeLa S3 lysate, sfGFP/mCherry ratio, 2 hrs at 30° C. In kind it is biochemical.
Source text: as §1, §2, §3, §4, §5, §6

For orientation: IC50 means the midpoint of a concentration-inhibition curve.

As for `COc1ccc(C[C@H]2NC[C@H](O)[C@H]2OC(=O)c2ccc(F)c(S(=O)(=O)N(C)C)c2)cc1` [V000196, (2R,3S,4S)-4-hydroxy-2-[(4-methoxyphenyl)methyl]pyrrolidin-3-yl 3-(dimethylsulfamoyl)-4-fluorobenzoate], the IC50 in experiment [1] and in experiment [2] was above 30 µM in each case.

With `COc1ccc(C[C@H]2NC[C@H](O)[C@H]2OC(=O)CC[C@H]2CNCCN2)cc1` [V041828, (2R,3S,4S)-4-hydroxy-2-[(4-methoxyphenyl)methyl]pyrrolidin-3-yl 3-[(2S)-piperazin-2-yl]propanoate], the IC50 in experiment [1] and in experiment [2] was above 30 µM each time.

`COc1ccc(C[C@H]2NC[C@H](O)[C@H]2OC(=O)[C@@H]2CN(Cc3ccccc3)CC23CNC3)cc1` [V186717, (2R,3S,4S)-4-hydroxy-2-[(4-methoxyphenyl)methyl]pyrrolidin-3-yl (8S)-6-benzyl-2,6-diazaspiro[3.4]octane-8-carboxylate]: the IC50 in experiment [1] and in experiment [2] was above 30 µM each time.

Regarding `COc1ccc(C[C@H]2NC[C@H](O)[C@H]2OC(=O)C2(N)CCCC2)cc1` [V186782, (2R,3S,4S)-4-hydroxy-2-[(4-methoxyphenyl)methyl]pyrrolidin-3-yl 1-aminocyclopentane-1-carboxylate], the IC50 in experiment [1] and in experiment [2] was above 30 µM each time.

As for `COc1ccc(C[C@H]2NC[C@H](O)[C@H]2OC(=O)[C@H]2CC[C@@H](O)CC2)cc1` [V186823, (2R,3S,4S)-4-hydroxy-2-[(4-methoxyphenyl)methyl]pyrrolidin-3-yl (1 s,4 s)-4-hydroxy cyclohexane-1-carboxylate], the IC50 is 20 to 30 µM in experiment [1] and above 30 µM in experiment [2].

Regarding `COc1ccc(C[C@H]2NC[C@H](O)[C@H]2OC(=O)CC[C@H]2CN(C)CCN2C)cc1` [V186854, (2R,3S,4S)-4-hydroxy-2-[(4-methoxyphenyl)methyl]pyrrolidin-3-yl 3-[(2S)-1,4-dimethylpiperazin-2-yl]propanoate; trifluoroacetic acid], the IC50 in experiment [1] and in experiment [2] was above 30 µM each time.

In the case of `COc1ccc(C[C@H]2NC[C@H](O)[C@H]2OC(=O)CCn2ccc(=O)[nH]c2=O)cc1` [V186992, (2R,3S,4S)-4-hydroxy-2-[(4-methoxyphenyl)methyl]pyrrolidin-3-yl 3-(2,4-dioxo-3H-pyrimidin-1-yl)propanoate], the IC50 in experiment [1] and in experiment [2] was below 10 µM in each case.

With `CC(=O)O[C@@H]1[C@@H](O)CN[C@@H]1Cc1ccc(-c2nn[nH]n2)cc1` [V187008, (2R,3S,4S)-4-hydroxy-2-{[4-(2H−1,2,3,4-tetrazol-5-yl)phenyl]methyl}pyrrolidin-3-yl acetate; trifluoroacetic acid], the IC50 in experiment [1] and in experiment [2] was below 10 µM each time.

In the case of `COc1ccc(C[C@H]2NC[C@H](O)[C@H]2OC(=O)Cc2cccs2)cc1` [V187050, (2R,3S,4S)-4-hydroxy-2-[(4-methoxyphenyl)methyl]pyrrolidin-3-yl 2-(thiophen-2-yl)acetate], the IC50 in experiment [1] and in experiment [2] was below 10 µM throughout.

Turning to `COc1ccc(C[C@H]2NC[C@H](O)[C@H]2OC(=O)Cc2nccs2)cc1` [V187052, (2R,3S,4S)-4-hydroxy-2-[(4-methoxyphenyl)methyl]pyrrolidin-3-yl 2-(1,3-thiazol-2-yl)acetate; trifluoroacetic acid], the IC50 in experiment [1] and in experiment [2] was below 10 µM in each case.

On to `COc1ccc(C[C@H]2NC[C@H](O)[C@H]2OC(=O)CCc2ccccc2)cc1` [V187069, (2R,3S,4S)-4-hydroxy-2-[(4-methoxyphenyl)methyl]pyrrolidin-3-yl 3-phenylpropanoate], for which the concentration for half-maximal inhibition (IC50) in experiment [1] and in experiment [2] was below 10 µM in each case.

For the molecule `COc1ccc(C[C@H]2NC[C@H](O)[C@H]2OC(=O)CCc2cn(C)cn2)cc1` [V187096, (2R,3S,4S)-4-hydroxy-2-[(4-methoxyphenyl)methyl]pyrrolidin-3-yl 3-(1-methylimidazol-4-yl)propanoate; trifluoroacetic acid], the IC50 in experiment [1] and in experiment [2] was below 10 µM in each case.

On to `COc1ccc(C[C@H]2NC[C@H](O)[C@H]2OC(=O)Cc2ccc(N3CCOCC3)cc2)cc1` [V187134, (2R,3S,4S)-4-hydroxy-2-[(4-methoxyphenyl)methyl]pyrrolidin-3-yl 2-[4-(morpholin-4-yl)phenyl]acetate], for which the IC50 in experiment [1] and in experiment [2] was below 10 µM in each case.

In the case of `COc1ccc(C[C@H]2NC[C@H](O)[C@H]2OC(=O)Cn2cnnc2)cc1` [V187181, (2R,3S,4S)-4-hydroxy-2-[(4-methoxyphenyl)methyl]pyrrolidin-3-yl 2-(1,2,4-triazol-4-yl)acetate], the IC50 in experiment [1] is below 10 µM; in experiment [2], 20 to 30 µM.

As to `CC(=O)O[C@@H]1[C@@H](O)CN[C@@H]1Cc1ccc(OC(F)(F)F)cc1` [V187185, (2R,3S,4S)-4-hydroxy-2-{[4-(trifluoromethoxy)phenyl]methyl}pyrrolidin-3-yl acetate], the IC50 in experiment [2] is below 10 µM.

On to `O=C(CC1CC(F)(F)C1)O[C@@H]1[C@@H](O)CN[C@@H]1Cc1ccc(-c2cnco2)cc1` [V192387, (2R,3S,4S)-4-hydroxy-2-{[4-(1,3-oxazol-5-yl)phenyl]methyl}pyrrolidin-3-yl 2-(3,3-difluorocyclobutyl)acetate], for which the half-inhibitory concentration (IC50) in experiment [2] is below 10 µM.

Take `O=C(CC1CC(F)(F)C1)O[C@@H]1[C@@H](O)CN[C@@H]1Cc1ccc(-c2cncs2)cc1` [V192840, (2R,3S,4S)-4-hydroxy-2-{[4-(1,3-thiazol-5-yl)phenyl]methyl}pyrrolidin-3-yl 2-(3,3-difluorocyclobutyl)acetate]: the IC50 in experiment [2] was below 10 µM.

Take `O=C(CC[C@@H]1CCCN1)O[C@@H]1[C@@H](O)CN[C@@H]1Cc1ccc(-c2cnco2)cc1` [V192841]: the IC50 in experiment [2] is below 10 µM.

`O=C(CC[C@@H]1CCCN1)O[C@@H]1[C@@H](O)CN[C@@H]1Cc1ccc(-c2cncs2)cc1` [V192842, (2R,3S,4S)-4-hydroxy-2-{[4-(1,3-thiazol-5-yl)phenyl]methyl}pyrrolidin-3-yl 3-[(2S)-pyrrolidin-2-yl]propanoate]: in experiment [2], the IC50 was below 10 µM.

As to `O=C(Cc1cccc(F)c1)O[C@@H]1[C@@H](O)CN[C@@H]1Cc1ccc(-c2cnco2)cc1` [V192843, (2R,3S,4S)-4-hydroxy-2-{[4-(1,3-oxazol-5-yl)phenyl]methyl}pyrrolidin-3-yl 2-(3-fluorophenyl)acetate], the IC50 in experiment [2] was below 10 µM.

As to `O=C(Cc1cccc(F)c1)O[C@@H]1[C@@H](O)CN[C@@H]1Cc1ccc(-c2cncs2)cc1` [V192844, (2R,3S,4S)-4-hydroxy-2-{[4-(1,3-thiazol-5-yl)phenyl]methyl}pyrrolidin-3-yl 2-(3-fluorophenyl)acetate], in experiment [2], the IC50 was below 10 µM.

Turning to `COc1ccc(C[C@H]2NC[C@H](O)[C@H]2OC(=O)CC[C@@H]2CCCN2)cc1` [V192931, (2R,3S,4S)-4-hydroxy-2-[(4-methoxyphenyl)methyl]pyrrolidin-3-yl 3-[(2S)-pyrrolidin-2-yl]propanoate], the IC50 in experiment [2] is below 10 µM.

As to `CC(=O)O[C@@H]1[C@@H](O)CN[C@@H]1Cc1ccc(-c2cnco2)cc1` [V192987, (2R,3S,4S)-4-hydroxy-2-{[4-(1,3-oxazol-5-yl)phenyl]methyl}pyrrolidin-3-yl acetate], in experiment [2], the IC50 was below 10 µM.

For `O=C(C[C@@H]1CCNC1)O[C@@H]1[C@@H](O)CN[C@@H]1Cc1ccc(C(F)F)cc1` [V193046, (2R,3S,4S)-2-{[4-(difluoromethyl)phenyl]methyl}-4-hydroxypyrrolidin-3-yl 2-[(3S)-pyrrolidin-3-yl]acetate], the IC50 in experiment [2] was below 10 µM.

Turning to `O=C(C[C@@H]1CCNC1)O[C@@H]1[C@@H](O)CN[C@@H]1Cc1ccc(-c2cnco2)cc1` [V193047, (2R,3S,4S)-4-hydroxy-2-{[4-(1,3-oxazol-5-yl)phenyl]methyl}pyrrolidin-3-yl 2-[(3S)-pyrrolidin-3-yl]acetate], in experiment [2], the 50% inhibitory concentration (IC50) is below 10 µM.
